Experiments:
[1] = tested on: GRE reporter gene in A549 cells; assay: GRE reporter gene assay in A549 cells (MMTV-Luc); type: cell-based; conditions: 24 h; for EC50: Homo sapiens
Description: 4. GRE reporter gene assay A549 cells were plated (40,000 cells/96-well plate), transfected with pGL4.36 (MMTV-Luc, 100 ng/well) using lipo3000, cultured overnight and then incubated with different concentrations of small-molecule steroids. After 24 h, the expression of luciferase in the reporter gene system was detected using the Bright-Glo (promega) assay reagent.

[2] = target: T1, human recombinant GR (Homo sapiens, UniProt P04150); assay: human glucocorticoid NHR (radiolabeled agonist) binding assay; conditions: competition with 5 nM [3H]dexamethasone, 4° C., 24 h
T1 sequence (P04150 1-777): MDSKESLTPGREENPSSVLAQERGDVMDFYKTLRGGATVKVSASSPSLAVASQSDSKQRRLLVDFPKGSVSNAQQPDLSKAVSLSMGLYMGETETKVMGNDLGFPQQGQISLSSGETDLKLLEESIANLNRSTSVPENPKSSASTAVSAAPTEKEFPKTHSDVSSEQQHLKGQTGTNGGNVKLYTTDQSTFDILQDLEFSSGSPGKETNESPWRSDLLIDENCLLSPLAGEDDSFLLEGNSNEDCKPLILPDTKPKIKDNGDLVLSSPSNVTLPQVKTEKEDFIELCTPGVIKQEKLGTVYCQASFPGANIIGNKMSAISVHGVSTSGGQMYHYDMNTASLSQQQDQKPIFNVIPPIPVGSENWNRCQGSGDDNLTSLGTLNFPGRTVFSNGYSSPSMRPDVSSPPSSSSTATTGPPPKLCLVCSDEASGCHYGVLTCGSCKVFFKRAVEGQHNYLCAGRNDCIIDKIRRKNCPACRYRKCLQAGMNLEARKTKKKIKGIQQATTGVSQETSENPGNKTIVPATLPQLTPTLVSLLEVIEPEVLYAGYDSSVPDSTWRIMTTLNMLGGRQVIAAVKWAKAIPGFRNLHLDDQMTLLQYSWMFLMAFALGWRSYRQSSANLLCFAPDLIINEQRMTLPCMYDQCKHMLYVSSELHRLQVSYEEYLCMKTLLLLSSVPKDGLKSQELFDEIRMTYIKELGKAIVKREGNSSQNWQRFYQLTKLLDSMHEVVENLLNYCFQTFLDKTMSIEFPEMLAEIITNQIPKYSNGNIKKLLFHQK
Description: 2. Glucocorticoid Receptor Binding Assay
The assays were based on the following principle: Different concentrations of a small-molecule steroid and 5 nM [3H]dexamethasone are incubated with human recombinant GR at 4° C. for 24 h. The small-molecule steroid competes with [3H]dexamethasone for binding to human GR. The binding activity of the small-molecule steroid for GR can be calculated by counting the number of [3H]dexamethasone molecules that bind specifically to the receptor.

[3] = target: T2, mineralocorticoid receptor (MR) (Homo sapiens, UniProt P08235); assay: Mineralocorticoid receptor agonist activity, PathHunter NHR nuclear translocation assay; type: cell-based; conditions: PathHunter NHR CHO-K1 cells
T2 construct: expressed in transfected cells; host or cells: PathHunter NHR CHO-K1 cells
T2 sequence (P08235 1-984): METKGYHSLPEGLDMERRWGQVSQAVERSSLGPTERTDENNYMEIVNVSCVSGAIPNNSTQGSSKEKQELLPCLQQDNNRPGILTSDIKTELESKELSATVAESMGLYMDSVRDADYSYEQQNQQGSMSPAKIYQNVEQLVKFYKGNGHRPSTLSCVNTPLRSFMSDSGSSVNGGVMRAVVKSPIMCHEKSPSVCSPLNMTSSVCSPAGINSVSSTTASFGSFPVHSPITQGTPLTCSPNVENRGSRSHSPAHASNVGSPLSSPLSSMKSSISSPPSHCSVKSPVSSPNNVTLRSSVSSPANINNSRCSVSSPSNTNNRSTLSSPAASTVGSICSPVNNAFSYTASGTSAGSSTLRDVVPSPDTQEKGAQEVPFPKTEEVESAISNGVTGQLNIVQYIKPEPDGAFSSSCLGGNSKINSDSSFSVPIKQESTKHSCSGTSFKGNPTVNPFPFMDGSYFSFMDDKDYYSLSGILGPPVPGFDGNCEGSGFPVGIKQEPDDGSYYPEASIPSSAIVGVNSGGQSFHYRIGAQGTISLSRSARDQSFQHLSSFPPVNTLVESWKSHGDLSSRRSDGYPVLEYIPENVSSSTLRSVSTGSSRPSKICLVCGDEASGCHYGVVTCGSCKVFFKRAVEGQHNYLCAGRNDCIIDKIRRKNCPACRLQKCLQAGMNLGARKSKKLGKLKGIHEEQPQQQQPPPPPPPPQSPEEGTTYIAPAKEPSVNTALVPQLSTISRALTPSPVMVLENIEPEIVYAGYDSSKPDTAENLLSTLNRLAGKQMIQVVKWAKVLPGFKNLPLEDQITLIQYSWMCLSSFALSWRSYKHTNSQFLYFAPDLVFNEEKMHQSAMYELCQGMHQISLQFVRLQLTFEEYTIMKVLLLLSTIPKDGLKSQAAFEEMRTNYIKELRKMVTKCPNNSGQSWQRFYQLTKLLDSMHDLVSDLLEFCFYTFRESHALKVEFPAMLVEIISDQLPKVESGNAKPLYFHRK
Description: 3. Mineralocorticoid Receptor Agonist Activity Assay The mineralocorticoid receptor (MR) agonist activity of small-molecule steroids was tested using a PathHunter® NHR nuclear translocation assay. PathHunter NHR CHO-K1 cells were plated onto a 384-well white-wall microplate and co-incubated with test small-molecule steroids at 37° C. in 5% CO2 to induce reactions. Assay signals were generated using the PathHunter assay reagent mix. After one hour of incubation at room temperature, chemiluminescent signals were detected. The data were analyzed using four-parameter curve fitting to generate EC50 values.

[4] = tested on: mouse collagen antibody-induced arthritis (CAIA) model; assay: Mouse collagen antibody-induced arthritis (CAIA) model; type: in vivo; conditions: 10 mg/kg intraperitoneally twice a week; FIG. 6
Description: Male balb/c mice, 6 w, purchased from the Laboratory Animal Management Department, Shanghai Institute of Planned Parenthood Research. Housing environment: SPF; production license SCXK (Shanghai) 2018-0006; Balb/c mouse certification number: 20180006023393.
Upon arrival, the test animals were acclimatized for 7 days and randomly grouped. On day 0, each group of mice was intraperitoneally injected with 1.5 mg/mouse of type II collagen antibody cocktail (purchased from Chondrex Inc.) for modeling except for the control group. On day 3, each group of mice was intraperitoneally injected with […] of LPS (100 μL) to boost the immune response except for the control group. Administration to each group of mice began on day 5, and limb arthritis was scored every 1-3 days. Mice were dosed according to the following administration regimens. The severity of arthritis in each group of mice was semi-quantitatively scored every 1-3 days and further, the anti-inflammatory activity of anti-TNF-ADCs was evaluated.

| Molecule | GRE reporter gene Emax [1] [RLU] | EC50 [1] [nM] | IC50 [2] [nM] | EC50 [3] [nM] | anti-inflammatory activity in the CAIA model [4] |
| --- | --- | --- | --- | --- | --- |
| C[C@]12C=CC(=O)C=C1CC[C@@H]1[C@@H]2[C@@H](O)C[C@@]2(C)[C@H]1C[C@H]1O[C@@H](c3ccc(Cc4cccc(N)c4)cc3)O[C@]12C(=O)CO [A-A, reference compound] | 1.45E6 | 0.6 |  |  |  |
| C[C@]12C=CC(=O)C=C1CC[C@@H]1[C@@H]2[C@@H](O)C[C@@]2(C)[C@H]1C[C@H]1O[C@@H](c3ccc(-c4ccc(-c5cccc(N)c5)cc4)cc3)O[C@]12C(=O)CO [Compound 1-A] | 7.67E5 | 22.6 | 4.37 | > 200000 |  |
| C[C@]12C=CC(=O)C=C1CC[C@@H]1[C@@H]2[C@@H](O)C[C@@]2(C)[C@H]1C[C@H]1O[C@@H](c3ccc(C(=O)c4cccc(N)c4)cc3)O[C@]12C(=O)CO [Compound 2-A] |  |  | 6.69 | 220 |  |
| C[C@]12C=CC(=O)C=C1CC[C@@H]1[C@@H]2[C@@H](O)C[C@@]2(C)[C@H]1C[C@H]1O[C@@H](c3ccc(Cc4cccc5c(N)cccc45)cc3)O[C@]12C(=O)CO [Compound 3-A] | 1.53E6 | 1.47 | 2.24 | 190 |  |
| C[C@]12C=CC(=O)C=C1CC[C@@H]1[C@@H]2[C@@H](O)C[C@@]2(C)[C@H]1C[C@H]1O[C@@H](c3ccc(C(F)(F)c4cccc(N)c4)cc3)O[C@]12C(=O)CO [Compound 4-A] | 1.69E6 | 2.16 | 2.12 | 260 |  |
| C[C@]12C=CC(=O)C=C1CC[C@H]1[C@@H]3C[C@H]4O[C@@H](c5ccc(C(=O)c6cccc(N)c6)cc5)O[C@@]4(C(=O)CO)[C@@]3(C)C[C@H](O)[C@@]12F [Compound 5-A] | 2.3E7 | 4.3 | 5.23 |  |  |
| adalimumab [Humira] |  |  |  |  | weak anti-inflammatory activity |
